What was measured:
carrageenin edema = assay: Anti-Carrageenin edema activity; format: in vivo, rat; details: Rattus norvegicus, po, 1000 mg/kg once, read-out: I.R. against carrageenin edema
Protocol: After orally administering each of the present compounds forcibly to each group of rats, composed of 10 animals, as a solution or dispersion in distilled water at a dose of 1000 mg/kg once, 0.1 ml of an aqueous dispersion of 1% carrageenin in aqueous physiological saline solution was injected into the foot pad of the right hind leg of the administered animal following Van Arman et al. (1963). Thereafter, the thickness of the foot pad was measured at a time interval to find the rate of inhibiting of the swelling of the foot pad according to the following formula:
(§1) Rate of inhibition (I.R.) (%)=(1-T/C)×100
T means the average volume of the foot pad of the animals administered with one of the present compounds and carrageenin, and
C means that of the animal not administered with the present compound, however, administered with carrageenin.

beta-lipoprotein = assay: Anti-hyperlipemia activity, beta-lipoprotein in blood; format: in vivo, rabbit (Japanese white male); details: oral, 300 mg/kg once
Protocol: (§2) Japanese white male rabbits were fed for 3 months with a solid diet containing 1% of cholesterol taken ad lib, and after confirming the raised lipid content of the serum of the rabbits, they were utilized as model animals suffering from experimental arteriosclerosis. Each of the present compounds was administered orally as a solution or dispersion in distilled water to the experimental animals of each group at a dose rate of 300 mg/kg once, and blood samples were taken at a predetermined time interval from the auricular vein of each animal. The content of cholesterol in the blood specimen was traced as the time passed by, with an enzymatic method, and the content of beta-lipoprotein in the same blood specimen was traced with a colorimetry. Each value in Table 7 is the difference between the level just before administration and the level after 3 or 6 hours of the administration.

exudation = assay: Anti-exudation activity (air pouch, croton oil); format: in vivo, rat; details: Rattus norvegicus, po, 144 h, 5 days, read-out: I.R. against exudation
Protocol: Following the method of Baris et al. (1965), air was injected subcutaneously into the back of groups of rats, each group consisting of 6 animals to make an air pouch, and 0.5 ml of sesame oil containing 1% by weight of croton oil was injected into the air pouch. Each of the present compounds was orally administered forcibly to each of the groups of rats as a solution or dispersion in distilled water at a dose rate of 1000 mg/kg/day for continued five days. The amount of liquid exudated into the air pouch was measured on 6th day of the operation. The rate of inhibiting the exudation of the liquid was obtained by the same manner as in (5-2) and the results are shown also in Table 8.

Sarcoma-180 = assay: Anti-tumour activity against Sarcoma-180; format: in vivo, mouse (ICR-JCL); details: Mus musculus, Sarcoma-180, po, 600 h, 10 times every other day, tumour weight on 25th day, read-out: Antitumour activity, inhibiting rate (I.R.)
Protocol: Sarcoma-180 was transplanted into the axillary part of ICR-JCL mice at a rate of 1×10^6 cells/animal, and after 24 hours of transplantation, each of the present compounds as a solution or dispersion in sterilized physiological saline solution was orally administered to each of the transplanted mice 10 times every other day at a dose of 500 mg/kg/time. On 25th day of the transplantation, tumour node(s) were extirpated from all the mice to determine the weight of the tumour nodes.
Antitumour activity (activity of inhibiting the proliferation of the transplanted sarcoma) of each of the present compounds was derived by the following formula and shown in Table 6:
Antitumour activity (Inhibiting rate, I.R.)=(1-T/C)×100(%).
T represents the total weight of tumour nodes of the group of mice transplanted and administered with the present compound, and
C represents the total weight of tumour nodes of the group of mice transplanted, however, not administered with any agents.

level of blood sugar = assay: Anti-hyperglycemia activity (reduction of blood sugar level); format: in vivo, rat (Wistar, streptozotocin); details: oral, 300 mg/kg
Protocol: A group of Wistar rats to which at first streptozotocin was interperitoneally administered at a rate of 60 mg/kg and of which the positivity of glycosuria was confirmed after a week of the administration and to which regular insulin was further administered and of which the reduction of levels of glucose in urine and blood was once confirmed, however, of which hyperglycemia and hyperglycosuria were again confirmed after a few days was chosen and used as model animals of glycosuria in the following test. After orally administering each of the present compounds to the model animals at a dose of 300 mg/kg body weight, as a solution or dispersion in distilled water, the blood was collected two times, respectively after 3 and 6 hours of the administration.

cotton pellet granuloma = assay: Anti-granuloma activity (cotton pellet); format: in vivo, rat; details: Rattus norvegicus, po, 192 h, 7 days, read-out: I.R. against cotton pellet edema
Protocol: Following the method of Winter et al. (1963), each two cotton wool pellets, each weighing 30±1 mg, were implanted into the back of each rats of groups of rats, each group consisting of 6 animals, at the positions of mutually symmetrical concerning the median line of the rat. To these groups of the thus operated rats, the present compounds were respectively administered orally and forcibly as a solution or dispersion in distilled water for 7 continuous days, once a day at a dose of 1000 mg/kg/day. On 8th day of the implantation, the granuloma was extirpated and the dry weight of the granuloma was measured, the rate of inhibiting the proliferation of granuloma being obtained as in (5-1) being shown in Table 8.

[1] = test system: pseudo-escaping reaction to tail pressure; assay: Analgetic activity against mechanical stimulation of pressure; format: in vivo, mouse (ICR female); details: oral, 1000 mg/kg
total cholesterol = assay: Anti-hyperlipemia activity, total cholesterol in blood; format: in vivo, rabbit (Japanese white male); details: oral, 300 mg/kg once; for Reduction of cholesterol level after 3 hrs.: negative = raising
Protocol: as §2

in vivo = details: mouse, in vivo, po, mice, 7 days observation, read-out: LD50, acute oral toxicity
[2] = test system: pyrexia (Saccharomyces cerevisiae); assay: Anti-pyrexia activity (yeast-induced); format: in vivo; details: Rattus norvegicus, oral, read-out: Rate of inhibiting pyrexia (I.R.)
Protocol: Following the method of Winter et al. (1961), an aqueous dispersion of 20% by weight of Saccharomyces cerevisiae was subcutaneously injected into groups of rats, each group consisting of 6 animals, and after 10-hour fasting, 1000 mg/kg of each of the present compounds was orally administered to the rat as a solution of dispersion in distilled water, and then the rectal temperature of the rat was measured at a predetermined interval of time to find the lowest temperature.
The anti-pyrexia activity of each compound was obtained from the following formula: […]
Anti-pyrexia activity represented by the rate of inhibition (I.R.)
C2 represents the average rectal temperature of negative control (non-treatment), not injected with the yeast and not administered with the present compound,
C1 represents the average temperature of positive control, injected with the yeast and not administered with the compound and T represents the temperature of tested animals, injected with the yeast and administered with the present compound.

blood pressure = assay: Anti-hypertension activity (reduction of blood pressure); format: in vivo, rat (spontaneous hypertension); details: oral, 300 mg/kg
Protocol: Rats of spontaneous hypertension were orally administered with each of the present compounds as a solution or dispersion in distilled water at a dose rate of 300 mg/kg body weight. After 3 and 6 hours of the administration, the blood pressure of each rat was determined, and the difference between the above-determined value and the value just before the administeration was used as the index of the activity of reducing the blood pressure of the compound.

acetic acid writhing = assay: Analgetic activity against chemical stimulation of acetic acid (writhing); format: in vivo, mouse (ICR female); details: Mus musculus, po, 30 min before 0.6% acetic acid, read-out: I.R. of writhing
From the text: as §1
T represents the average number of writhing of the group of mice administered with the present compound and injected with acetic acid, and C represents the average number of writhing of the group of mice only injected with acetic acid (control).

SMILES | inhibition in vivo at 1000 mg/kg (carrageenin edema) | Reduction of beta-lipoprotein level after 3 hrs. (beta-lipoprotein) | Reduction of beta-lipoprotein level after 6 hrs. (beta-lipoprotein) | inhibition in vivo at 1000 mg/kg/day (exudation) | inhibition in vivo at 500 mg/kg (Sarcoma-180) | Reduced level of blood sugar after 3 hrs. (level of blood sugar) | Reduced level of blood sugar after 6 hrs. (level of blood sugar) | inhibition in vivo at 1000 mg/kg/day (cotton pellet granuloma) | Pseudo-escapting reaction pressure [1] | Pseudo-escapting reaction time [1] | Reduction of cholesterol level after 3 hrs. (total cholesterol) | Reduction of cholesterol level after 6 hrs. (total cholesterol) | LD50 at 168 h (in vivo) | inhibition in vivo at 1000 mg/kg [2] | Reduced level of blood pressure after 3 hrs. (blood pressure) | Reduced level of blood pressure after 6 hrs. (blood pressure) | inhibition in vivo at 1000 mg/kg (acetic acid writhing)
O=C(OCC1CCCCC1)c1ccc(NC2OC[C@@H](O)[C@@H](O)[C@H]2O)cc1 (stereo partly drawn) [Compound 23, hexahydrobenzyl p-aminobenzoate-N-D-riboside] | 4.9% | 141 mg/dL | 143 mg/dL | 22.5% | 47% | 120 mg/dL | 126 mg/dL | 7.3% | 80 mmHg | 39 s | -1 mg/dL | 40 mg/dL | 12600 mg/kg | 15% | 21 mm Hg | 22 mm Hg | 23%
NC(=O)c1ccccc1NC1(CO)OC[C@@H](O)[C@@H](O)[C@@H]1O (stereo partly drawn) [Compound 1, o-Aminobenzoic acid amide-N-D-fructoside] | 15.6% | 120 mg/dL | 131 mg/dL | 17.5% | 42% | 68 mg/dL | 92 mg/dL | 6.6% | 78 mmHg | 38 s | -2 mg/dL | 36 mg/dL | 11800 mg/kg | 41% | 16 mm Hg | 19 mm Hg | 17%
C[C@@H]1OC(Nc2cccc(C(=O)OCc3ccccc3)c2)[C@@H](O)[C@H](O)[C@@H]1O (stereo partly drawn) [Compound 11, benzyl m-aminobenzoate-N-L-fucoside] | 22.8% | 98 mg/dL | 109 mg/dL | 11% | 40% | 75 mg/dL | 88 mg/dL | 4.4% | 74 mmHg | 35 s | -1 mg/dL | 50 mg/dL | 9700 mg/kg | 29% | 21 mm Hg | 25 mm Hg | 17%
O=C(OC1CCCCC1)c1cccc(NC2O[C@H](CO)[C@@H](O)[C@H](O)[C@@H]2O)c1 (stereo partly drawn) [Compound 17, cyclohexyl m-aminobenzoate-N-D-mannoside] | 4.3% | 124 mg/dL | 136 mg/dL | 14.6% | 49% | 140 mg/dL | 145 mg/dL | 19.7% | 92 mmHg | 42 s | -2 mg/dL | 40 mg/dL | > 15000 mg/kg | 30% | 23 mm Hg | 28 mm Hg | 47%

From patent US4372948A, “Derivative of saccharide and physiologically active agent containing the same” (Kureha Kagaku Kogyo Kabushiki Kaisha, priority 1980, dated 1983)
